Assay results reported in the supplement of paper PMC10307832.

Columns and labels:
Assay in all cases: relative viability (nuclei count vs DMSO), 5 days (fraction); higher = more cells survive
[1] = compound: CN(C)C[C@@H]1CCn2cc(c3ccccc32)C2=C(C(=O)NC2=O)c2cn(c3ccccc23)CCO1 [Ruboxistaurin] + C[C@]1(O)C[C@@H](c2nc(-c3ccc4ccc(-c5ccccc5)nc4c3)c3c(N)nccn32)C1 [Linsitinib] (partner 1 µM)
How it was run: (§1)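 Cells from lung cancer lines were seeded into 1536-well plates and, one day later, dosed by pin tool. Treatments were either a single drug or a fixed dose of an anchor drug with five library-drug doses (not always all listed) in √10 steps. After 5 days, nuclei were stained in a one-step fixation (final 0.05% Triton X-100, 1% formaldehyde, 1 ug/ml Hoechst) and counted on 4× images, and relative viability is the treated-to-vehicle nuclei ratio, as the median of duplicate plates.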

[2] = compound: CN(C)C[C@@H]1CCn2cc(c3ccccc32)C2=C(C(=O)NC2=O)c2cn(c3ccccc23)CCO1 [Ruboxistaurin] + Cc1nc(NC(=O)N2CCC[C@H]2C(N)=O)sc1-c1ccnc(C(C)(C)C(F)(F)F)c1 [Alpelisib] (partner 2 µM)
How it was run: as §1

[3] = compound: CN(C)C[C@@H]1CCn2cc(c3ccccc32)C2=C(C(=O)NC2=O)c2cn(c3ccccc23)CCO1 [Ruboxistaurin] + CS(=O)(=O)N1CCN(Cc2cc3nc(-c4cccc5[nH]ncc45)nc(N4CCOCC4)c3s2)CC1 [Pictilisib] (partner 1 µM)
How it was run: as §1

[4] = compound: CN(C)C[C@@H]1CCn2cc(c3ccccc32)C2=C(C(=O)NC2=O)c2cn(c3ccccc23)CCO1 [Ruboxistaurin] + CC(C)C[C@H](NC(=O)[C@H](Cc1ccccc1)NC(=O)c1cnccn1)B(O)O [Bortezomib] (partner 0.002 µM)
How it was run: as §1

[5] = compound: CN(C)C[C@@H]1CCn2cc(c3ccccc32)C2=C(C(=O)NC2=O)c2cn(c3ccccc23)CCO1 [Ruboxistaurin] + C[C@@H](Oc1cc(-c2cnn(C3CCNCC3)c2)cnc1N)c1c(Cl)ccc(F)c1Cl [Crizotinib] (partner 1 µM)
How it was run: as §1

Cell Line | relative viability ([1]; first compound 0.08 µM) | relative viability ([1]; first compound 0.8 µM) | relative viability ([1]; first compound 2.53 µM) | relative viability ([1]; first compound 8 µM) | relative viability ([2]; first compound 0.08 µM) | relative viability ([2]; first compound 0.8 µM) | relative viability ([2]; first compound 2.53 µM) | relative viability ([2]; first compound 8 µM) | relative viability ([3]; first compound 0.08 µM) | relative viability ([3]; first compound 0.8 µM) | relative viability ([3]; first compound 2.53 µM) | relative viability ([3]; first compound 8 µM) | relative viability ([4]; first compound 0.08 µM) | relative viability ([4]; first compound 0.8 µM) | relative viability ([4]; first compound 2.53 µM) | relative viability ([4]; first compound 8 µM) | relative viability ([5]; first compound 0.08 µM) | relative viability ([5]; first compound 0.8 µM) | relative viability ([5]; first compound 2.53 µM) | relative viability ([5]; first compound 8 µM)
201T | 1.03 | 0.874 | 1.06 | 0.891 | 1.03 | 1.01 | 1.01 | 1.01 | 0.729 | 0.629 | 0.742 | 0.555 | 1.12 | 1.08 | 1.12 | 1.15 | 1.05 | 0.972 | 1.08 | 1.05
A549 | 0.685 | 0.562 | 0.61 | 0.458 | 0.75 | 0.562 | 0.944 | 0.501 | 0.567 | 0.423 | 0.385 | 0.223 |  |  |  |  | 0.751 | 0.631 | 0.862 | 0.679
A-427 | 1.1 | 1.08 | 0.992 | 0.925 | 1.07 | 0.996 | 1.02 | 0.874 | 0.7 | 0.594 | 0.738 | 0.557 | 1.01 | 0.952 | 0.97 | 0.731 | 1.01 | 0.676 | 0.911 | 0.732
ABC-1 | 0.767 | 0.865 | 0.969 | 0.625 | 1.35 | 1.13 | 1.07 | 0.839 | 0.865 | 0.774 | 0.787 | 0.506 | 0.357 | 0.339 | 0.308 | 0.261 | 1.41 | 0.45 | 1.29 | 0.784
BEN | 1.04 | 0.883 | 0.9 | 0.721 | 1.06 | 1.07 | 0.973 | 0.787 | 0.604 | 0.538 | 0.535 | 0.406 | 0.903 | 0.78 | 0.702 | 0.677 | 0.92 | 0.818 | 0.894 | 0.658
CAL-12T | 0.884 | 0.679 | 0.897 | 0.927 | 1.47 | 1.17 | 1.27 | 1.13 | 0.482 | 0.349 | 0.395 | 0.386 | 1.12 | 0.981 | 1.06 | 1.11 | 0.585 | 0.491 | 0.751 | 0.746
COR-L23 | 0.928 | 0.815 | 1.03 | 0.851 | 0.804 | 0.814 | 0.73 | 0.695 | 0.802 | 0.688 | 0.676 | 0.59 | 1.1 | 0.797 | 0.968 | 1.35 | 0.725 | 0.621 | 0.689 | 0.777
COR-L 105 | 1.17 | 0.75 | 0.78 | 0.696 | 1.17 | 1.09 | 0.911 | 0.706 | 0.463 | 0.388 | 0.385 | 0.313 | 0.906 | 0.651 | 0.823 | 0.685 | 0.8 | 0.828 | 0.868 | 0.664
